In patent publication US20230312530A1, “SALT OF RHO-ASSOCIATED PROTEIN KINASE INHIBITOR, SOLID FORM OF THE SALT, PREPARATION METHOD FOR SAME, AND USES THEREOF” (BEIJING TIDE PHARMACEUTICAL CO., LTD., priority 2020, published 2023):

Test: Pharmacokinetic test, single oral administration to beagle dogs
Assay type: in vivo
Conditions: dog, blood, 20 mg/kg, once, 20 mpk, vehicle 0.5% CMC-Na
Procedure: The crystalline form I of compound A monohydrochloride monohydrate and compound A (vehicles for both samples were 0.5% CMC-Na) were respectively orally administered once to two groups of beagle dogs at a dose of 20 mpk, and blood samples were collected before the administration (0 h) and at 0.25, 0.5, 1, 2, 4, 6, 8 and 24 hours after the administration. The samples were processed and subjected to a chromatographic analysis.

Cmax: 147 ng/mL
AUC(0-t) (sampling to 24 hours): 522 ng·h/mL
SMILES: Cn1c(C(=O)N2CC(F)(F)C2)cc2ccc(-c3nccc(Nc4ccc(-c5cn[nH]c5)cc4)n3)cc21 [Compound A, (6-(4-((4-(1H-pyrazol-4-yl)phenyl)amino)pyrimidin-2-yl)-1-methyl-1H-indol-2-yl)(3,3-difluoroazetidin-1-yl)methanone]
